From paper PMC8268238, “Seleno-Functionalization of Quercetin Improves the Non-Covalent Inhibition of M^pro and Its Antiviral Activity in Cells against SARS-CoV-2” (International Journal of Molecular Sciences, 2021)
Read-outs that look alike come from different tables or passages of the source.

Columns and labels:
[1] = biological target: T1, SARS-CoV-2 M^pro (Severe acute respiratory syndrome coronavirus 2, UniProt P0DTD1); assay: SARS-CoV-2 M^pro inhibition assay (FRET substrate); assay type: biochemical; details: for IC50 / Ki: 0.2 μM enzyme, 20 μM substrate, pH 7, DMSO 2.5%; for IC50: equivalent to Ki^app; for Ki: intrinsic inhibition constant; for anti-M^pro inhibitory activity (in words): first-line screening at 100 μM
Experimental: A continuous assay based on Förster resonance energy transfer (FRET) to measure in vitro the catalytic activity of M^pro was implemented by using the substrate (Dabcyl)KTSAVLQSGFRKME(Edans)-NH2 (Biosyntan GmbH, Berlin, Germany) The enzymatic reaction was initiated by adding substrate at 20 μM (final concentration) to the enzyme at 0.2 μM (final concentration) in a final volume of 100 μL. The reaction buffer was sodium phosphate 50 mM, pH 7, NaCl 150 mM, and DMSO 2.5%. Fluorescence emission was measured in a FluoDia T70 microplate reader (Photon Technology International, Birmingham, NJ, USA) for 20 min (excitation wavelength, 380 nm; emission wavelength, 500 nm). The initial slope of the time evolution curve of the fluorescence emission signal provided a direct quantification of the enzymatic activity.
The in vitro inhibition potency of the compounds against M^pro was assessed through the estimation of the inhibition constant, Ki, and the half-maximal inhibitory concentration, IC50, from experimental inhibition curves. Inhibition curves were obtained by measuring the enzyme activity (at fixed 0.2 μM enzyme concentration and fixed 20 μM substrate concentration) as a function of compound concentration (serial 2-fold dilution from 125 µM to 0 μM), maintaining the percentage of DMSO (2.5%) constant. The enzymatic activity was quantitated as the initial slope of the substrate fluorescence emission time evolution curve, and was plotted as a function of compound concentration. The ratio between the activity (slope) in the presence and absence of the compound provides the residual percentage of activity at a given compound concentration. Nonlinear regression analysis employing a simple inhibition model (considering inhibitor depletion due to enzyme binding) allowed us to estimate the apparent inhibition constant, Ki^app, for each compound according to Equation (1):(1) [EI]=1/2([I]T+[E]T+Kiapp−([I]T+[E]T+Kiapp)^2−4[E]T[I]T)[I]=[I]T−[EI]=1/2([I]T−[E]T−Kiapp+([I]T+[E]T+Kiapp)^2−4[E]T[I]T)v([I])/v([I]=0)=1−[EI]/[E]T=1/1+[I]/Kiapp, where [EI] is the concentration of the enzyme–inhibitor complex, [E]T and [I]T are the total concentrations of the enzyme and the inhibitor, Ki^app is the apparent inhibition constant for the inhibitors (quercetin and derivatives), [I] is the concentration of the free inhibitor, and v is the initial slope of the enzymatic activity trace at a given (free) inhibitor concentration [I] (or total inhibitor concentration [I]T). No approximation for the free inhibitor concentration (e.g., assuming to be equal to the total inhibitor concentration) was made, thus having general validity for any total enzyme and inhibitor concentration and any value of the inhibition constant (even for tight-binding inhibitors). In addition, if the inhibitor acts through a purely competitive mechanism, the previous equation can be substituted by Equation (2):(2) v([I])/v([I]=0)=1/1+[I]/Kiapp=1/1+[I]/Ki(1+[S]/Km), where Ki is the intrinsic (i.e., substrate concentration-independent) inhibition constant, Km is the Michaelis–Menten constant for the enzyme–substrate interaction, and [S] is the substrate concentration. Because Km and [S] are known, the intrinsic inhibition constant can be determined. Furthermore, approximating the free compound concentration by the total compound concentration and neglecting ligand depletion, the Ki^app in Equation (2) is equivalent to the IC50, as reported in Table 3. However, it should be emphasized that the IC50 is an assay-dependent inhibition potency index (among other parameters, it depends on the enzyme and substrate concentrations, as well as on the Km); thus, the intrinsic inhibition constant is a better inhibition potency index. Uncertainties have been reported as 95% profile likelihood asymmetric confidence intervals, as especially recommended for equilibrium constants (i.e., binding association/dissociation constants and inhibition constants).

[2] = test system: SARS-CoV-2; details: for Inhibition of the virus-caused cytopathic effect (CPE) / toxicity in the cellular infection model (in words): Vero cells; for Inhibition of the virus-caused cytopathic effect (CPE): 2 days; for SARS-CoV-2-related CPE reduction (in words): tested at 100, 75, 50, 25 and 10 µM, judged at non-toxic concentrations; for toxicity in the cellular infection model (in words) / precipitation in the medium (in words): 100-10 µM; for precipitation in the medium (in words): culture medium
[3] = test system: SARS-CoV-2; assay: Inhibition of SARS-CoV-2 replication in Vero cells by RT-qPCR; assay type: cell-based
[4] = test system: Vero cells; assay: XTT cell viability assay; assay type: cell-based, Cercopithecus aethiops; details: quercetin 500–100 µM; 2d 100–10 µM; Figure S2
Experimental: Cell viability was evaluated using the XTT Cell Viability Assay kit (Biological Industries, Cromwell, CT, USA) according to the manufacturer’s protocol. Vero, A549ACE2+, CRFK, HRT-18, LLC-MK2, and HSF cells were cultured on 96-well plates. Cells were incubated with ACF for 24 h at 37 °C in an atmosphere containing 5% CO2. After incubation, the medium was discarded and 100 µL of fresh medium was added to each well. Then, 25 µL of the activated 2,3-bis-(2-methoxy-4-nitro-5-sulphenyl)-(2H)-tetrazolium-5-carboxanilide (XTT) solution was added and samples were incubated for 2 h at 37 °C. The absorbance (λ = 450 nm) was measured using a Spectra MAX 250 spectrophotometer (Molecular Devices, San Jose, CA, USA). The obtained results were normalized to the control samples, where cell viability was set to 100%.

[5] = biological target: T1, SARS-CoV-2 M^pro; assay: Reversibility test of M^pro interaction (SEC/dialysis, then activity and near-UV CD); assay type: biochemical; details: M^pro 24 μM incubated with compound 200 μM, 30 min, 25 °C, then SEC or dialysis

Structure (SMILES) | melting point [°C] | IC50 [1] [µM] | Ki [1] [µM] | Inhibition of the virus-caused cytopathic effect (CPE) ([2]; 10 µM) | Inhibition of the virus-caused cytopathic effect (CPE) ([2]; 25 µM) | Inhibition of the virus-caused cytopathic effect (CPE) ([2]; 75 µM) | Inhibition of the virus-caused cytopathic effect (CPE) ([2]; 100 µM) | also measured
Cc1cc(C)c([Se]CCOc2cc(O)c3c(=O)cc(-c4ccccc4)oc3c2)c(C)c1 | 135.7 to 138.4 |  |  |  |  |  |  | 
Cc1ccccc1[Se]CCOc1cc(O)c2c(=O)cc(-c3ccccc3)oc2c1 | 123.9 to 127.4 |  |  |  |  |  |  | 
O=c1cc(-c2ccccc2)oc2cc(OCC[Se]c3ccc(F)cc3)cc(O)c12 | 171.1 to 173.7 |  |  |  |  |  |  | 
O=c1cc(-c2ccccc2)oc2cc(OCC[Se]c3cccc(C(F)(F)F)c3)cc(O)c12 | 154.1 to 157.7 |  |  |  |  |  |  | 
COc1ccccc1[Se]CCOc1cc(O)c2c(=O)cc(-c3ccccc3)oc2c1 | 132.9 to 135.6 |  |  |  |  |  |  | 
O=c1cc(-c2ccccc2)oc2cc(OCC[Se]Cc3ccccc3)cc(O)c12 | 115.4 to 118.2 |  |  |  |  |  |  | 
O=c1c(O)c(-c2ccc(O)c(O)c2)oc2c([Se]c3ccccc3)c(O)cc(O)c12 [2a, 2-(3,4-Dihydroxyphenyl)-3,5,7-trihydroxy-8-(phenylselanyl)-4H-chromen-4-one] | 211 to 213 | 5.1 | 1.8 | - | - | tox | tox | Inhibition of the virus-caused cytopathic effect (CPE) ([2]; 50 µM): +; SARS-CoV-2-related CPE reduction (in words) [2]: inhibited the development of the CPE; inhibition of SARS-CoV-2 replication by RT-qPCR (in words) ([3]; Vero cells, Figure S1): did not indicate any inhibition
CCCCCCCCCC[Se]c1c(O)cc(O)c2c(=O)c(O)c(-c3ccc(O)c(O)c3)oc12 [2b, 2-(3,4-Dihydroxyphenyl)-3,5,7-trihydroxy-8-(decylselenyl)-4H-chromen-4-one] | 155 to 159 | > 100 | > 100 |  |  |  |  | anti-M^pro inhibitory activity (in words) [1]: devoid of any noticeable anti-M^pro inhibitory activity
CCCC[Se]c1c(O)cc(O)c2c(=O)c(O)c(-c3ccc(O)c(O)c3)oc12 [2c, 2-(3,4-Dihydroxyphenyl)-3,5,7-trihydroxy-8-(butylselenyl)-4H-chromen-4-one] | 159 to 163 | 24 | 8.6 |  |  |  |  | 
COc1ccc([Se]c2c(O)cc(O)c3c(=O)c(O)c(-c4ccc(O)c(O)c4)oc23)cc1 [2e, 2-(3,4-Dihydroxyphenyl)-3,5,7-trihydroxy-8-((4-methoxyphenyl)selanyl)-4H-chromen-4-one] | 194 to 197 | 3 | 1.1 | - | - | tox | tox | Inhibition of the virus-caused cytopathic effect (CPE) ([2]; 50 µM): tox/-
O=c1cc(-c2ccccc2)oc2cc(OCC[Se]c3ccccc3)cc(O)c12 [7a, 5-Hydroxy-2-phenyl-7-(2-(phenylselanyl)ethoxy)-4H-chromen-4-one] | 155 to 156 | > 100 | > 100 |  |  |  |  | 
O=c1c(O)c(-c2ccc(O)c(O)c2)oc2cc(O)cc(O)c12 [Quercetin 1, quercetin] |  |  |  | - | - | - | - | cytotoxicity on Vero cells (in words) [4]: none of the tested concentrations exhibited cytotoxicity; Inhibition of the virus-caused cytopathic effect (CPE) ([2]; 50 µM): -; Inhibition of the virus-caused cytopathic effect (CPE) ([2]; 200 µM): +; Inhibition of the virus-caused cytopathic effect (CPE) ([2]; 250 µM): +; Inhibition of the virus-caused cytopathic effect (CPE) ([2]; 300 µM): +; Inhibition of the virus-caused cytopathic effect (CPE) ([2]; 400 µM): +; Inhibition of the virus-caused cytopathic effect (CPE) ([2]; 500 µM): +; IC50 ([3]; Severe acute respiratory syndrome coronavirus 2, Vero, 48 h, infected Vero cells, 2 days, nonlinear regression, read-out: IC50 of SARS-CoV-2 replication (RT-qPCR)): 192 µM; logIC50 of SARS-CoV-2 replication (RT-qPCR) ([3]; log of concentration in µM, Figure S4): 2,284; reversibility of the interaction with M^pro ([5]; listed as 1): reversible interaction; reversibility of the interaction with M^pro ([5]; listed as quercetin): reversible
O=c1c(O)c(-c2ccc(O)c(O)c2)oc2c([Se]c3ccccc3)c(O)c([Se]c3ccccc3)c(O)c12 [compound 3, 2-(3,4-Dihydroxyphenyl)-3,5,7-trihydroxy-6,8-bis(phenylselanyl)-4H-chromen-4-one] | 206 to 210 | 13 | 4.6 | - | - | tox | tox | Inhibition of the virus-caused cytopathic effect (CPE) ([2]; 50 µM): tox/-
O=c1cc(-c2ccccc2)oc2c([Se]c3ccccc3)c(O)c([Se]c3ccccc3)c(O)c12 [compound 6, 5,7-Dihydroxy-2-phenyl-6,8-bis(phenylselanyl)-4H-chromen-4-one] | 188.7 to 190.6 | > 100 | > 100 |  |  |  |  | anti-M^pro inhibitory activity (in words) [1]: devoid of any noticeable anti-M^pro inhibitory activity
O=c1cc(-c2ccccc2)oc2cc(OCC[Te]c3ccccc3)cc(O)c12 [compound 8, 5-Hydroxy-2-phenyl-7-[2-(phenyltellanyl)ethoxy]-4H-chromen-4-one] | 128 to 129 | 3.3 | 1.1 |  |  | prec/tox | prec/tox | toxicity in the cellular infection model (in words) [2]: toxic; precipitation in the medium (in words) [2]: precipitated; SARS-CoV-2-related CPE reduction (in words) [2]: No CPE reduction
O=c1cc(-c2ccccc2)oc2cc(OCC[Te]c3ccc(Cl)cc3)cc(O)c12 [compound 9, 7-{2-[(4-Chlorophenyl)tellanyl]ethoxy}-5-hydroxy-2-phenyl-4H-chromen-4-one] | 140.3 to 143 | 2.2 | 0.77 | - | - | prec/- | prec/tox | toxicity in the cellular infection model (in words) [2]: toxic; precipitation in the medium (in words) [2]: precipitated; SARS-CoV-2-related CPE reduction (in words) [2]: No CPE reduction
